Results from PubChem BioAssay (NCI).
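Dose response: 5 concentrations. Exposure: 48 h. Format: 96-well plates. Endpoint: linear interpolation; highest concentration if not reached. The concentration for full growth arrest is given as TGI.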

Columns and labels:
Assay in all cases: DTP human tumour cell line panel, 48 h
A549 NSCLC = tested on: A549 NSCLC
KM12 colon = tested on: KM12 colon
SF-539 CNS = tested on: SF-539 CNS
SW-620 colon = tested on: SW-620 colon
RPMI-8226 leukemia = tested on: RPMI-8226 leukemia
K-562 leukemia = tested on: K-562 leukemia
786-0 renal = tested on: 786-0 renal
HOP-92 NSCLC = tested on: HOP-92 NSCLC
MDA-MB-435 = tested on: MDA-MB-435
OVCAR-5 ovarian = tested on: OVCAR-5 ovarian
HOP-62 NSCLC = tested on: HOP-62 NSCLC
M14 melanoma = tested on: M14 melanoma
MCF7 breast = tested on: MCF7 breast
LOX IMVI melanoma = tested on: LOX IMVI melanoma
UACC-257 melanoma = tested on: UACC-257 melanoma
SN12C renal = tested on: SN12C renal
A498 renal = tested on: A498 renal
MDA-N = tested on: MDA-N
NCI-H226 lung = tested on: NCI-H226 lung
IGROV1 ovarian = tested on: IGROV1 ovarian
NCI-H23 lung = tested on: NCI-H23 lung
MOLT-4 leukemia = tested on: MOLT-4 leukemia
SK-OV-3 ovarian = tested on: SK-OV-3 ovarian
UACC-62 melanoma = tested on: UACC-62 melanoma
RXF 393 renal = tested on: RXF 393 renal
SNB-75 CNS = tested on: SNB-75 CNS
OVCAR-8 ovarian = tested on: OVCAR-8 ovarian
SK-MEL-28 melanoma = tested on: SK-MEL-28 melanoma
ACHN renal = tested on: ACHN renal
BT-549 breast = tested on: BT-549 breast
UO-31 renal = tested on: UO-31 renal
SR leukemia = tested on: SR leukemia
MDA-MB-231 breast = tested on: MDA-MB-231 breast
CCRF-CEM leukemia = tested on: CCRF-CEM leukemia
OVCAR-3 ovarian = tested on: OVCAR-3 ovarian
NCI-H522 lung = tested on: NCI-H522 lung
SF-295 CNS = tested on: SF-295 CNS
SNB-19 CNS = tested on: SNB-19 CNS
PC-3 prostate = tested on: PC-3 prostate
SK-MEL-5 melanoma = tested on: SK-MEL-5 melanoma
CAKI-1 renal = tested on: CAKI-1 renal
MALME-3M melanoma = tested on: MALME-3M melanoma
HCT-116 colon = tested on: HCT-116 colon
NCI/ADR-RES ovarian = tested on: NCI/ADR-RES ovarian
EKVX NSCLC = tested on: EKVX NSCLC
HCT-15 colon = tested on: HCT-15 colon
SK-MEL-2 melanoma = tested on: SK-MEL-2 melanoma
HL-60(TB) leukemia = tested on: HL-60(TB) leukemia
COLO 205 colon = tested on: COLO 205 colon
DU-145 prostate = tested on: DU-145 prostate
NCI-H460 lung = tested on: NCI-H460 lung
HCC-2998 colon = tested on: HCC-2998 colon
U251 CNS = tested on: U251 CNS
HT29 colon = tested on: HT29 colon
OVCAR-4 ovarian = tested on: OVCAR-4 ovarian
HS 578T breast = tested on: HS 578T breast
TK-10 renal = tested on: TK-10 renal

Measured: TGI

c1ccc2c(c1)c(N1CCCCC1)cc1nc3c(cc(N4CCCCC4)c4ccccc43)nc12
not listed: HS 578T breast | TK-10 renal
> 100 µM: all other assays above

Cc1ccc2nc(-n3c(/C=C/c4ccccc4O)nc4ccccc4c3=O)sc2c1
not listed: SF-539 CNS | SN12C renal | SR leukemia | MALME-3M melanoma
> 100 µM: all other assays above
